Reference: patent US20190254285A1, “SODIUM PHOSPHITE COMBINATIONS” (priority 2016, published 2019)

What was measured:
Penicillium discolor = Penicillium discolor rot on wounded apples cv Gala; type: in vivo; conditions: rot surface area vs untreated control, phosphite 16 mM, natamycin 100 ppm
Description: Tested fruit: apples cv Gala from organic origin/SKAL certified. SKAL is a semi-governmental Dutch organization that controls organic production in the Netherlands. Wounds of the apples were checked at day 3. All phosphite concentrations were tested at a concentration of 16 mM of phosphonate. Natamycin (95%, Freda) solo and in combination was tested at a concentration of 100 ppm. […] Used pathogen: Penicillium discolor spore-suspension containing 4*10E6 spores/ml. Application: The fruit peel of the apple was damaged with a cork borer, ø4 mm and depth ˜0.5 cm into the fruit, with 2 wounds per apple. 40 microliter of a freshly prepared spore suspension of P. discolor was applied by pipette onto each wound. Subsequently, the spore-suspension was allowed to air-dry for 4 hours. Then, 50 microliter of a treatment as presented in the list above was applied by pipette to each wound. All fruits were kept at room temperature (20° C.). Wounds of the apples were checked after 4, 7 and 9 days of incubation. The efficacy is calculated by measuring the surface area (square mm) of the rot on the apples, and compared to the untreated control (see Table 4). Replicates: All treatments for the apple experiment were performed on six individual apples with two wounds each resulting in 12 wounds per treatment.

Botrytis cinerea = Botrytis cinerea rot on wounded apple and banana fruit; type: in vivo; design: key: Different results are indicated by different letters; Different results are indicated by different letters; Different results are indicated by different letters; Different results are indicated by different letters; Different results are indicated by different letters
Excerpt: Tested fruit: apple (cv Elstar) and a banana (cv Cavendish) from organic origin/SKAL certified. SKAL is a semi-governmental Dutch organization that controls organic production in the Netherlands.
Used pathogen: Botrytis cinerea spore-suspension containing ˜3×10^5 propagules (spores)/ml.
Application: Fruit peel was damaged with a cork borer, depth ˜0.5 cm into the fruit, 2 wounds per apple fruit; 2 wounds per banana fruit. 30 microliters of a freshly prepared spore suspension of B. cinerea (estimated 3×10^5 spores/ml) were applied by pipette onto each wound. Subsequently, the spore-suspension was allowed to air-dry for 3 hours. 50 microliters of fungicide suspensions 1-6 were applied by pipette to each wound.
All fruits were kept at room temperature (20° C.).
Replicates: All treatments (1-6) were performed on 6 individual apples and 6 individual bananas with 2 wounds each resulting in 12 wounds per fruit per treatment. The recorded observed antifungal activity is the reduction (in percentages) of the average surface of the rot as observed in the 12 wounds compared to the rot surface of the untreated control.
Observation: All wounds were inspected daily for visual symptoms of fruit rot and/or fungus growth. Rot surface was determined after 5 and 7 days (see Tables 1, 2 and 3). The recorded observed antifungal activity is the surface of the rot.

In the case of `C[C@@H]1C/C=C/C=C/C=C/C=C/[C@H](OC2O[C@H](C)[C@@H](O)[C@H](N)[C@@H]2O)C[C@@H]2O[C@](O)(C[C@@H](O)C[C@H]3O[C@@H]3/C=C/C(=O)O1)C[C@H](O)[C@H]2C(=O)O` (stereo partly drawn) [Natamycin, (1R,3S,5R,7R, 8E,12R,14E,16E,18E,20E,22R,24S,25R,26S)-22-[(3-amino-3,6-dideoxy-D-mannopyranosyl)oxy]-1,3,26-trihydroxy-12-methyl-10-oxo-6,11,28-trioxatricyclo[22.3.1.05,7]octacosa-8,14,16,18,20-pentaene-25-carboxylic acid], the “Efficacy (%)” value (Penicillium discolor; Day 4) is reported as 23%, the “Efficacy (%)” value (Penicillium discolor; Day 7) is reported as 10% and the “Efficacy (%)” value (Penicillium discolor; Day 9) is reported as 9%.
With `O=[PH]([O-])O.[Na+]` [NaH2PO3, monosodium dihydrogen phosphite] the “Effect on fungicidal attack of Botrytis on apple and banana” value (“Effect on fungicidal attack of Botrytis” for short) (Botrytis cinerea; Table 3, NaH2PO3 part, Concentration 1, mandipropamid control) was “d”, the “Effect on fungicidal attack of Botrytis” value (Botrytis cinerea; Table 3, NaH2PO3 part, Concentration 2, mandipropamid control) was “c” and the “Effect on fungicidal attack of Botrytis” value (Botrytis cinerea; Table 3, NaH2PO3 part, Concentration 3, mandipropamid control) was “b”.
`C#CCOc1ccc(CCNC(=O)C(OCC#C)c2ccc(Cl)cc2)cc1OC` (racemic) [mandipropamid, (RS)-2-(4-chloorfenyl)-N-[3-methoxy-4-(prop-2-ynyloxy)fenethyl]-2-(prop-2-ynyloxy)acetamide] was tested, and the “Effect on fungicidal attack of Botrytis” value (Botrytis cinerea; Table 1, phosphonate Control, mandipropamid 1/16 label) was “e”, the “Effect on fungicidal attack of Botrytis” value (Botrytis cinerea; Table 1, phosphonate Control, mandipropamid ¼ label) was “e” and the “Effect on fungicidal attack of Botrytis” value (Botrytis cinerea; Table 1, phosphonate Control, mandipropamid ½ label) was “d”. The “Effect on fungicidal attack of Botrytis” value (Botrytis cinerea; Table 1, phosphonate Control, mandipropamid ⅛ label) was “e”, the “Effect on fungicidal attack of Botrytis” value (Botrytis cinerea; Table 3, Na2HPO3 part, phosphonate Control, mandipropamid ¼ label) was “d” and the “Effect on fungicidal attack of Botrytis” value (Botrytis cinerea; Table 3, Na2HPO3 part, phosphonate Control, mandipropamid ⅛ label) was “e”. The “Effect on fungicidal attack of Botrytis” value (Botrytis cinerea; Table 3, NaH2PO3 part, phosphonate Control, mandipropamid ¼ label) was “e” and the “Effect on fungicidal attack of Botrytis” value (Botrytis cinerea; Table 3, NaH2PO3 part, phosphonate Control, mandipropamid ½ label) was “d”.
In the case of `COCC(=O)N(c1c(C)cccc1C)C(C)C(=O)OC` (racemic) [mefenoxam, methyl N-(methoxyacetyl)-N-(2,6-xylyl)-DL-alaninate], the “Effect on fungicidal attack of Botrytis” value (Botrytis cinerea; Table 2, phosphonate Control, mefenoxam ¼ label) is reported as “e”.
